Eight compounds from patent US8192717B2, “Composition for diagnosing amyloid-related diseases” (Nagasaki University, priority 2004, dated 2012) can be followed below.

Data set [1] addresses T1, Aβ(1-42) aggregates (Homo sapiens, UniProt P05067).
T1 construct: the amyloid β protein (Human, 1-42) [TFA form]; purchased Peptide Institute, Inc
Put plainly: Inhibition experiment using [125I] compound 11 as radioactive ligand, Aβ(1-42) aggregates. The format is binding. Conditions: radioligand [125I] compound 11; Cheng-Prusoff; read-out: Inhibition constant (Ki, nM) Aβ(1-42). The method, then: (§1) Aβ aggregates was dissolved in a buffer (pH 7.4) that contained 10 mM sodium phosphate and 1 mM EDTA, resulting in a concentration of 0.5 mg/ml. Thereafter, the obtained solution was incubated at 37° C. for 36 to 42 hours. A binding experiment was carried out using 12×75 mm borosilicate glass tubes. […] The obtained mixture was left at room temperature for 3 hours. Non-specific bond was calculated using nonradioactive compound 11 (1 μM). […] The radioactivity of a substance remaining in the filter used in filtration was measured with a γ counter. With regard to [^125I] compound 11, the Kd value thereof was calculated by the Scatchard analysis. In addition, using [^125I] compound 11 as a radioactive ligand, an inhibition experiment was carried out by the following method using the Aβ(1-40) aggregates and the Aβ(1-42) aggregates. […] The obtained mixture was left at room temperature for 3 hours. Non-specific bond was calculated using nonradioactive compound 11 (1 μM). The 50% inhibitory concentration was calculated using GraphPad Prism (GraphPad Software), and the inhibition constant (Ki value) was calculated according to the formula of Cheng-Prusoff, Ki=IC50/(1+[L]/Kd). In this formula, [L] represents the concentration of [^125I] compound 11, and Kd represents the dissociation constant of [^125I] compound 11 to the Aβ(1-40) aggregates and the Aβ(1-42) aggregates.

The target of data set [2] is T2, Aβ(1-40) aggregates (Homo sapiens, UniProt P05067).
T2 construct: The amyloid β protein (Human, 1-40) [HCl form]; purchased Peptide Institute, Inc
T2 sequence (P05067 672-711 limits assumed): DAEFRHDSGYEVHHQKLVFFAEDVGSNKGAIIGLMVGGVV
Put plainly: In vitro binding of [125I]-labelled compounds to Aβ aggregates (filtration, radioactivity on filter). As to conditions: [125I]-labelled compound; radioactivity remaining on filter in presence vs absence of Aβ aggregates. The method, then: as §1

Data set [3] concerns senile plaque amyloid, cerebrovascular amyloid and neurofibrillary degeneration in brain tissues of patient with Alzheimer's disease. Put plainly: Binding experiment using brain tissues of patient with Alzheimer's disease (fluorescence microscopy of sections). Also on record: species or system human. Conditions: 100 nM, room temperature, 10 minutes; temporal lobe sections. The method, then: Tissues at the temporal lobe site of the brain of a patient with Alzheimer's disease were fixed with formalin, and were then embedded in paraffin. A section with a thickness of 5 μm was prepared from the paraffin block, and the paraffin was then removed by an ordinary treatment with xylene and ethanol (Lippa, C. F., Nee, L. E., Mori, H & George-Hyslop, P. (1998) The Lancet 352:1117-1118). As the final stage, neutralization was carried out with a phosphate buffer. Thereafter, compounds 10, 11, 19, and 20 were reacted in a concentration of 100 nM at room temperature for 10 minutes. Thereafter, the reaction product was washed with a phosphate buffer three times, and then with 50% ethanol three time, so as to terminate the reaction. Thereafter, the resultant was dehydrated by treatments with alcohol and xylene, followed by embedding with Entellan(R) new. The bond of the above compound was confirmed by image observation with a CCD camera (M-3204C) included with a fluorescence microscope (Olympus BX50).

The nature of data set [4]: Radioactivity distribution in mouse body after intravenous administration of radioiodine labeled forms. Conditions: normal mice, intravenous, [125I]-labelled form. The method, then: Thereafter, 100 μl (0.5 to 1 μCi) of each labeled form was intravenously administered to each group consisting of three to five 5-week-old ddY male mice (25 to 30 g). 2, 10, 30, and 60 minutes after the intravenous administration, such mice were decapitated, and blood was collected. Thereafter, organs were excised, and the weight and radioactivity thereof were then measured.

In data set [5] the target is T2, Aβ(1-40) aggregates. Put plainly: Inhibition experiment using [125I] compound 11 as radioactive ligand, Aβ(1-40) aggregates. The format is binding. Conditions: radioligand [125I] compound 11; Cheng-Prusoff; read-out: Inhibition constant (Ki, nM) Aβ(1-40). The method, then: as §1
Data set [6] has as its target T2, Aβ(1-40) aggregates. The experiment in a line: Saturation experiment of [125I] compound 11 with Scatchard analysis, Aβ(1-40) aggregates. The format is binding. As to conditions: read-out: dissociation equilibrium constant (Kd value). The method, then: as §1
Data set [7] has as its target T1, Aβ(1-42) aggregates. The experiment in a line: Saturation experiment of [125I] compound 11 with Scatchard analysis, Aβ(1-42) aggregates. The format is binding. As to conditions: read-out: dissociation equilibrium constant (Kd value). The method, then: as §1

What is called Ki is the dissociation constant of the complex between target and ligand, obtained from inhibition or displacement. The term Kd denotes the equilibrium constant for the complex coming apart.

T1 sequence (P05067 672-713 limits assumed): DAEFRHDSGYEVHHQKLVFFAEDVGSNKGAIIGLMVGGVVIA

Turning to `CNc1ccc(-c2cc(=O)c3cc(I)ccc3o2)cc1` [compound 10, 6-iodo-4′-methylaminoflavone], the Ki at Aβ(1-42) aggregates [1] turned out to be 30 ± 3.4 nM; on Aβ(1-40) aggregates [5], 22.6 ± 3.4 nM. For the same compound, the “bindability to the Aβ aggregates” value at Aβ(1-40) aggregates [2] was “high bindability”. Moreover, the “recognition of and binding to amyloid plaque, senile plaque having a neurodegenerative projection, cerebrovascular amyloid and neurofibrillary degeneration” value in data set [3] is “recognize amyloid plaque, senile plaque having a neurodegenerative projection, cerebrovascular amyloid and neurofibrillary degeneration, and bind thereto”. For the same compound, in data set [4], the “rate of disappearance from the brain (rank among flavone derivatives)” value was “almost the same as that of [^125I] compound 11”.
As to `CN(C)c1ccc(-c2cc(=O)c3cc(I)ccc3o2)cc1` [compound 11, 6-iodo-4′-dimethylaminoflavone], the inhibition constant Ki at Aβ(1-42) aggregates [1] came out at 15.6 ± 2.4 nM. Moreover, the Kd on Aβ(1-40) aggregates [6] was determined as 12.3 ± 2.3 nM. Besides, the “bindability to the Aβ aggregates” value on Aβ(1-40) aggregates [2] is on record as “high bindability”. For the same compound, in data set [3], the “bindability to senile plaque having a neurodegenerative projection and to neurofibrillary degeneration” value is listed as “has bindability”; the “binding to cerebrovascular amyloid” value is reported as “specifically binds to cerebrovascular amyloid”; the “binding to senile plaque” value is reported as “specifically binds to senile plaque”. For the same compound, on Aβ(1-40) aggregates [5], the Ki was 13.2 ± 0.2 nM. For the same compound, the Kd on Aβ(1-42) aggregates [7] was determined as 17.6 ± 5.7 nM.
Turning to `COc1ccc(-c2cc(=O)c3cc(I)ccc3o2)cc1` [compound 19, 6-iodo-4′-methoxyflavone], the results for the Ki at Aβ(1-42) aggregates [1] and at Aβ(1-40) aggregates [5] were 38.3 ± 8.1 nM and 29 ± 3.2 nM, respectively. Also, the “bindability to the Aβ aggregates” value at Aβ(1-40) aggregates [2] is given as “high bindability”. Also, in data set [3], the “recognition of and binding to amyloid plaque, senile plaque having a neurodegenerative projection, cerebrovascular amyloid and neurofibrillary degeneration” value was “recognize amyloid plaque, senile plaque having a neurodegenerative projection, cerebrovascular amyloid and neurofibrillary degeneration, and bind thereto”. In data set [4], the “rate of disappearance from the brain (rank among flavone derivatives)” value is listed as “fastest”.
As for `COc1cc(/C=C/C(=O)c2cccc(I)c2)ccc1O` [compound 31, (E)-3-(4-hydroxy-3-methoxyphenyl)-1-(3-iodophenyl)propan-2-en-1-one], the “bindability to the Aβ aggregates” value at Aβ(1-40) aggregates [2] is given as “high binding affinity”. In data set [4], the “ability to transfer to the brain (in words)” value is given as “transfers to the brain” and the “washing out / disappearance of radioactivity from the brain” value was “washed out rapidly”.
Take `CN(C)c1ccc(/C=C/C(=O)c2ccc(I)cc2)cc1` [compound 36, (E)-3-(4-(dimethylamino)phenyl)-1-(4-iodophenyl)propan-2-en-1-one]: the “bindability to the Aβ aggregates” value on Aβ(1-40) aggregates [2] is on record as “high binding affinity”.
Consider `Nc1ccc(C=Cc2cc(=O)c3cc(I)ccc3o2)cc1` [compound 46, 6-iodo-4′-aminostyrylchromone], for which the “bindability to the Aβ aggregates” value on Aβ(1-40) aggregates [2] is “high binding affinity”. Besides, in data set [4], the “ability to transfer to the brain” value stood at 4.9 % ID/g and the “washing out / disappearance of radioactivity from the brain” value is on record as “rapid disappearance of radioactivity”.
On the same counts, the results for `CNc1ccc(C=Cc2cc(=O)c3cc(I)ccc3o2)cc1` [compound 47, 6-iodo-4′-methylaminostyrylchromone] are “high binding affinity”, 3.0 % ID/g and “rapid disappearance of radioactivity”.
Take `CN(C)c1ccc(C=Cc2cc(=O)c3cc(I)ccc3o2)cc1` [compound 48, 6-iodo-4′-dimethylaminostyrylchromone]: at Aβ(1-40) aggregates [2], the “bindability to the Aβ aggregates” value is “high binding affinity”. Besides, in data set [4], the “ability to transfer to the brain (in words)” value was “low” and the “radioactivity retention in the blood” value was “high radioactivity retention ability in the blood”.
